Assay [1] has as its target T1, human cannabis CB1 receptor (Homo sapiens, UniProt P21554).
T1 construct: expressed in transfected cells; host or cells: human embryonic kidney (HEK) cells, Semliki Forest Virus system, membrane preparation
In words: Affinity for cannabinoid CB1 receptors, [3H]-CP-55,940 radioligand binding on HEK cell membrane preparations. The method, then:
The affinity of the compounds of the invention for cannabinoid CB1 receptors was determined using membrane preparations of human embryonic kidney (HEK) cells in which the human cannabis CB1 receptor is transiently transfected using the Semliki Forest Virus system in conjunction with [3H]-CP-55,940 as radioligand. After incubation of a freshly prepared cell membrane preparation with the [3H]-ligand, with or without addition of compounds of the invention, separation of bound and free ligand was performed by filtration over glassfiber filters. Radioactivity on the filter was measured by liquid scintillation counting.

The conditions of assay [2]: 5, 10 and 20 mg daily; compared to placebo; cited from earlier work.
[3] abbreviates: affinity for the CB1 receptor, [3H]-CP-55,940 as radioligand, HEK cell membranes, read-out: IC50.

Structures are written as SMILES. Read-outs that look alike come from different tables or passages of the source.

T1 sequence (P21554 whole entry): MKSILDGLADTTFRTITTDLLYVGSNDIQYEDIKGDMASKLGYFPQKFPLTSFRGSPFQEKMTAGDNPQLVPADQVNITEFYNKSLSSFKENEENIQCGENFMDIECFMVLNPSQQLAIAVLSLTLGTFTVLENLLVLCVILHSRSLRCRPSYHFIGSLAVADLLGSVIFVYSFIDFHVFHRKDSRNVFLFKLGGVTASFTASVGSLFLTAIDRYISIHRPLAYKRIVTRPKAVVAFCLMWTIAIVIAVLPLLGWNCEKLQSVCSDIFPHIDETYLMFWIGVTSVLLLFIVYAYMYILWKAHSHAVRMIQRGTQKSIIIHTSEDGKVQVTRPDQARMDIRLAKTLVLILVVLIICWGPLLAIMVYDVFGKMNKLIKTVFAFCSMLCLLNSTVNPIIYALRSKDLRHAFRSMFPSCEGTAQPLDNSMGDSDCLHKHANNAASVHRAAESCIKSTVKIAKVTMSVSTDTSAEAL

As a reminder, the IC50 is the midpoint of a concentration-inhibition curve. `CCOC(=O)c1csc(N(C(=O)c2ccc(Cl)cc2Cl)c2ccc(OC)c(OC)c2)n1` [Example 2, 2-[(2,4-Dichloro-benzoyl)-(3,4-dimethoxy-phenyl)-amino]-thiazole-4-carboxylic acid ethyl ester]: the IC50 in assay [1] (setting [3]) is 510 nM.

For `O=C(c1csc(N(C(=O)c2ccc(Cl)cc2Cl)c2ccc(Cl)cc2)n1)N1CCCC1` [Example 6, 2,4-Dichloro-N-(4-chloro-phenyl)-N-[4-(pyrrolidine-1-carbonyl)-thiazol-2-yl]-benzamide], the IC50 in assay [1] worked out at 610 nM.

For the molecule `COc1ccc(N(C(=O)c2ccc(Cl)cc2Cl)c2nc(C(=O)NCc3ccccc3)cs2)cc1OC` [Example 11, 2-[(2,4-Dichloro-benzoyl)-(3,4-dimethoxy-phenyl)-amino]-thiazole-4-carboxylic acidbenzylamide], the half-maximal inhibitory concentration (IC50) in assay [1] worked out at 810 nM.

With `COc1ccc(N(C(=O)c2ccccc2Cl)c2nc(C(=O)NC3CCCCC3)cs2)cc1OC` [Example 18, 2-[(2-Chloro-benzoyl)-(3,4-dimethoxy-phenyl)-amino]-thiazole-4-carboxylic acidcyclohexylamide], the half-inhibitory concentration (IC50) in assay [1] (setting [3]) stood at 850 nM.

Turning to `CCCCCN(C)C(=O)c1csc(N(C(=O)c2ccc(Cl)cc2Cl)c2ccc(Cl)cc2)n1` [Example 27, 2-[(4-Chloro-phenyl)-(2,4-dichloro-benzoyl)-amino]-thiazole-4-carboxylic acid methyl-pentyl-amide], in assay [1] (setting [3]), the IC50 came out at 520 nM.

`COCCN(CCOC)C(=O)c1csc(N(C(=O)c2ccc(Cl)cc2Cl)c2ccc(Cl)cc2)n1` [Example 33, 2-[(4-Chloro-phenyl)-(2,4-dichloro-benzoyl)-amino]-thiazole-4-carboxylic acid bis-(2-methoxy-ethyl)-amide]: the IC50 in assay [1] amounted to 550 nM.

As to `O=C(NCCc1cnc[nH]1)c1csc(N(C(=O)c2ccc(Cl)cc2Cl)c2ccc(Cl)cc2)n1` [Example 43], the IC50 in assay [1] (setting [3]) is 810 nM.

In assay [1], `CC(C)(C)N(CCO)C(=O)c1csc(N(C(=O)c2ccc(Cl)cc2Cl)c2ccc(Cl)cc2)n1` [Example 95, 2-[(4-Chloro-phenyl)-(2,4-dichloro-benzoyl)-amino]-thiazole-4-carboxylic acid tert-butyl-(2-hydroxy-ethyl)-amide] displayed an IC50 of 260 nM.

`O=C(c1cnc(N(C(=O)c2ccc(Cl)cc2Cl)c2ccc(Cl)cc2)s1)N1CCSCC1` [Example 138, 2,4-Dichloro-N-(4-chlor-o-phenyl)-N-[5-(thio-morpholine-4-car-bonyl)-thiazol-2-yl]-benz-amide]: the IC50 in assay [1] (setting [3]) was 430 nM.

On to `O=C(c1csc(N(C(=O)c2ccc(Cl)cc2Cl)c2ccc(OC(F)(F)F)cc2)n1)N1CCCC1` [Example 147, 2,4-Dichloro-N-[4-(pyrrolidine-1-carbonyl)thiazole-2-yl]-N-(4-trifluoromethoxy-phenyl)-benzamide], for which, in assay [1], the IC50 was determined as 490 nM.

For `Cc1c(C(=O)NN2CCCCC2)nn(-c2ccc(Cl)cc2Cl)c1-c1ccc(Cl)cc1` [SR 141716], the body weight entry in assay [2] was “significantly reduced body weight”.
